Among the data in patent publication EP0483928A1, “2-Saccharinylmethyl aryl carboxylates useful as proteolytic enzyme inhibitors and compositions and method of use” (STERLING WINTHROP INC., priority 1990, dated 1992) are Ki values, retold here.

Structures can show the parent of a compound that is named as a salt.

The target of one assay is T1, human leukocyte elastase (HLE) (Homo sapiens, UniProt P08246).
T1 sequence (P08246 30-267): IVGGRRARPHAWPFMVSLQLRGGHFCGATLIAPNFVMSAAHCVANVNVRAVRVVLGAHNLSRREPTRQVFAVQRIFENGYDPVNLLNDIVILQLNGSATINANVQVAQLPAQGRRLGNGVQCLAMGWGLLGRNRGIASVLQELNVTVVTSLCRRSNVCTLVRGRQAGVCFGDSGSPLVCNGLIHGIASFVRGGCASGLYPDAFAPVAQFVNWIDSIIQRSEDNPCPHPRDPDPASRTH
Nature of the assay: Inhibition of human leukocyte elastase: rate of inactivation kon and inhibition constant Ki* (koff/kon).
Details: not given
The assay is classed as biochemical.
As for `CCOP(=O)(OCC)c1cccc(C(=O)OCN2C(=O)c3c(C(C)C)cc(OC)cc3S2(=O)=O)c1` [Example 1BE], the Ki came out at 0.064 nM.

Still in this assay, the particulars now being: Ki* = koff/kon, calculated from measured koff and kon; not a truly reversible Ki; read-out: K*i.
In the case of `COCC(COc1cc(C(C)C)c2c(c1)S(=O)(=O)N(COC(=O)c1c(Cl)cccc1Cl)C2=O)OC` (racemic) [Example 5F], the Ki was 0.027 nM. In the case of `CC(C)c1cccc2c1C(=O)N(COC(=O)c1c(Cl)ccc(S(=O)(=O)N(C)CCN(C)C)c1Cl)S2(=O)=O` [Example 1AA], the Ki was 0.01 nM. `COc1ccc(Cl)c(C(=O)OCN2C(=O)c3c(C(C)C)cccc3S2(=O)=O)c1Cl` [Example 1AB]: the Ki is 0.016 nM. The same measure, in the same setting: to `COc1cc(Cl)c(C(=O)OCN2C(=O)c3c(C(C)C)cccc3S2(=O)=O)c(Cl)c1` [Example 1AC] belongs 0.025 nM.

For the compound `CC(C)c1cccc2c1C(=O)N(COC(=O)c1c(Cl)ccc(OCCN(C)C)c1Cl)S2(=O)=O` [Example 1AE], the Ki is 0.009 nM. Take `CC(C)c1cccc2c1C(=O)N(COC(=O)c1c(Cl)ccc(S(=O)(=O)N(C)CCCN(C)C)c1Cl)S2(=O)=O` [Example 1AF]: the Ki was 0.01 nM.

Take `CC(C)c1cccc2c1C(=O)N(COC(=O)c1c(F)ccc(S(=O)(=O)N3CCN(C)CC3)c1F)S2(=O)=O` [Example 1AG]: the Ki is 0.01 nM. With `O=C(OCN1C(=O)c2ccccc2S1(=O)=O)c1c2ccccc2cc2ccccc12` [Example 1AM], the Ki is 2.1 nM.

Consider `CC(C)c1cccc2c1C(=O)N(COC(=O)c1ccc(Cl)cc1Cl)S2(=O)=O` [Example 1AO], for which the Ki was 1 nM. In the case of `COc1cc(C(C)C)c2c(c1)S(=O)(=O)N(COC(=O)c1c(Cl)ccc(OCCN(C)C)c1Cl)C2=O` [Example 1AS], the Ki was 0.013 nM. In the case of `COc1cc(C(C)C)c2c(c1)S(=O)(=O)N(COC(=O)c1c(Cl)ccc(OCCN3CCCCC3)c1Cl)C2=O` [Example 1AU], the Ki is 0.03 nM. Turning to `CCN(CC)CCOc1ccc(Cl)c(C(=O)OCN2C(=O)c3c(C(C)C)cc(OC)cc3S2(=O)=O)c1Cl` [Example 1AV], the Ki was 0.023 nM. In the case of `CCOc1cc(C(C)C)c2c(c1)S(=O)(=O)N(COC(=O)c1c(Cl)ccc(OCCN3CCOCC3)c1Cl)C2=O` [Example 1AX], the Ki is 0.033 nM. Regarding `CCc1c(OC)cc(OC)c2c1C(=O)N(COC(=O)c1c(Cl)cccc1Cl)S2(=O)=O` [Example 1AY], the Ki is 0.9 nM. For `CCCc1c(OC)c(OC)cc2c1C(=O)N(COC(=O)c1c(Cl)cccc1Cl)S2(=O)=O` [Example 1BA], the Ki was 0.078 nM. Regarding `COc1cc2c(c(C(C)C)c1OC)C(=O)N(COC(=O)c1c(Cl)cccc1Cl)S2(=O)=O` [Example 1BB], the Ki is 0.35 nM. Consider `CCCc1c(OC)c(OC)cc2c1C(=O)N(COC(=O)c1c(Cl)ccc(OCCN3CCOCC3)c1Cl)S2(=O)=O` [Example 1BD], for which the Ki is 0.07 nM.

Consider `COc1cc(C(C)C)c2c(c1OC)S(=O)(=O)N(COC(=O)c1c(Cl)cccc1Cl)C2=O` [Example 1BF], for which the Ki is 2 nM. Take `CC(C)c1cc2c(c3c1C(=O)N(COC(=O)c1c(Cl)cccc1Cl)S3(=O)=O)OCO2` [Example 1BG]: the Ki is 0.043 nM. As to `COc1cc(C(C)C)c2c(c1OC)S(=O)(=O)N(COC(=O)c1c(Cl)ccc(S(=O)(=O)N3CCN(C)CC3)c1Cl)C2=O` [Example 1BH], the Ki was 0.6 nM. The same measure, in the same setting: the same measure for `CC(C)c1cc2c(c3c1C(=O)N(COC(=O)c1c(Cl)ccc(S(=O)(=O)N4CCN(C)CC4)c1Cl)S3(=O)=O)OCO2` [Example 1BI]: 0.029 nM; for `CC(C)c1cc2c(c3c1C(=O)N(COC(=O)c1c(Cl)ccc(OCCN4CCOCC4)c1Cl)S3(=O)=O)OCO2` [Example 1BJ]: 0.029 nM; for `COc1cc(C(C)C)c2c(c1)S(=O)(=O)N(COC(=O)c1c(OC)cccc1OC)C2=O` [Example 1BK]: 0.088 nM. With `COc1cc(C(C)C)c2c(c1)S(=O)(=O)N(COC(=O)c1c(F)cccc1F)C2=O` [Example 1BL], the Ki is 0.043 nM.

In the case of `COc1cc(C(C)C)c2c(c1)S(=O)(=O)N(COC(=O)c1c(C)cccc1C)C2=O` [Example 1BM], the Ki is 0.08 nM. `COc1cc(C(C)C)c2c(c1)S(=O)(=O)N(COC(=O)c1c(OC)ccc([N+](=O)[O-])c1OC)C2=O` [Example 1BN]: the Ki is 0.025 nM. For the compound `COc1cc(OC)c(C(=O)OCN2C(=O)c3c(C(C)C)cc(OC)cc3S2(=O)=O)c(OC)c1` [Example 1BO], the Ki is 0.05 nM. Same read-out and setting: the same measure for `COc1cc(C(C)C)c2c(c1)S(=O)(=O)N(COC(=O)c1c(OC)cc(OCc3ccccc3)cc1OC)C2=O` [Example 1BP]: 0.35 nM; for `COc1cc(F)c(C(=O)OCN2C(=O)c3c(C(C)C)cc(OC)cc3S2(=O)=O)c(F)c1` [Example 1BQ]: 0.068 nM; for `COc1cc(C(C)C)c2c(c1)S(=O)(=O)N(COC(=O)c1c(OC)ccc(NC(C)=O)c1OC)C2=O` [Example 1BR]: 0.057 nM. Turning to `COc1cc(C(C)C)c2c(c1)S(=O)(=O)N(COC(=O)c1ccccc1C(C)C)C2=O` [Example 1BS], the Ki is 0.036 nM. Regarding `CC(C)c1cccc2c1C(=O)N(COC(=O)c1c(Cl)cc(OCCN3CCOCC3)cc1Cl)S2(=O)=O` [Example 1BY], the Ki was 0.025 nM. On the same count and under the same terms, to `COc1cc(C(C)C)c2c(c1)S(=O)(=O)N(COC(=O)c1c(C)cc(OCc3ccccc3)cc1C)C2=O` [Example 1BZ] belongs 0.3 nM; to `CC(C)c1cc(O)cc2c1C(=O)N(COC(=O)c1c(Cl)cccc1Cl)S2(=O)=O` [Example 1C, 4-isopropyl-6-hydroxysaccharinylmethyl 2,6-dichlorobenzoate], 0.4 nM. As for `COc1ccc(C(=O)OCN2C(=O)c3ccccc3S2(=O)=O)c(OC)c1` [Example 1E], the Ki was 18 nM.

Consider `O=C(OCN1C(=O)c2ccccc2S1(=O)=O)c1cccc2ccccc12` [Example 1F], for which the Ki was 3 nM. Regarding `CC(C)c1cccc2c1C(=O)N(COC(=O)c1cccc3ccccc13)S2(=O)=O` [Example 1I], the Ki is 0.48 nM. For the compound `Cc1cccc(C)c1C(=O)OCN1C(=O)c2c(C(C)C)cccc2S1(=O)=O` [Example 1K], the Ki is 0.09 nM. As to `CC(C)c1cccc2c1C(=O)N(COC(=O)c1c3ccccc3cc3ccccc13)S2(=O)=O` [Example 1L], the Ki is 0.3 nM. Turning to `CC(C)c1cccc2c1C(=O)N(COC(=O)c1cc(Cl)ccc1Cl)S2(=O)=O` [Example 1M], the Ki was 0.25 nM. For the compound `O=C(OCN1C(=O)c2ccccc2S1(=O)=O)c1c(Cl)ccc(S(=O)(=O)N2CCOCC2)c1Cl` [Example 1S], the Ki was 2 nM. Still for that read-out and setting: the same measure for `O=C(O)CNS(=O)(=O)c1ccc(Cl)c(C(=O)OCN2C(=O)c3ccccc3S2(=O)=O)c1Cl` [Example 1T]: 4 nM; for `CC(C)c1cccc2c1C(=O)N(COC(=O)c1c(Cl)ccc(S(=O)(=O)N3CCOCC3)c1Cl)S2(=O)=O` [Example 1U]: 0.01 nM.

For `CC(C)c1cccc2c1C(=O)N(COC(=O)c1c(Cl)ccc(S(=O)(=O)N3CCN(C)CC3)c1Cl)S2(=O)=O` [Example 1V], the Ki was 0.007 nM.

Take `CC(C)c1cccc2c1C(=O)N(COC(=O)c1c(Cl)ccc(S(=O)(=O)NCC(=O)O)c1Cl)S2(=O)=O` [Example 1W]: the Ki is 0.01 nM. Regarding `CC(C)c1cccc2c1C(=O)N(COC(=O)c1cccc(OCc3ccccc3)c1)S2(=O)=O` [Example 1X], the Ki is 0.5 nM.

Take `CC(C)c1cccc2c1C(=O)N(COC(=O)c1c(Cl)ccc(OCc3ccccc3)c1Cl)S2(=O)=O` [Example 1Y]: the Ki was 0.12 nM.

On to `CC(C)c1cccc2c1C(=O)N(COC(=O)c1c(Cl)ccc(S(=O)(=O)N3CCN(Cc4ccccc4)CC3)c1Cl)S2(=O)=O` [Example 1Z, 4-isopropyl-2-saccharinylmethyl 2,6-dichloro-3-(4-benzyl-1-piperazinyl-sulfonyl)benzoate], for which the Ki was 0.06 nM.

Consider `CC(C)c1cccc2c1C(=O)N(COC(=O)c1c(Cl)ccc(O)c1Cl)S2(=O)=O` [Example 2A, 4-isopropyl-2-saccharinylmethyl 2,6-dichloro-3-hydroxybenzoate], for which the Ki was 0.04 nM. As to `CC(C)c1cccc2c1C(=O)N(COC(=O)c1c(Cl)ccc(S(=O)(=O)N3CCNCC3)c1Cl)S2(=O)=O` [Example 2B, 4-isopropyl-2-saccharinylmethyl 2,6-dichloro-3-(1-piperazinylsulfonyl)benzoate hydrochloride], the Ki is 0.02 nM. Consider `COc1cc(C(C)C)c2c(c1)S(=O)(=O)N(COC(=O)c1c(Cl)ccc(S(=O)(=O)NCC(=O)O)c1Cl)C2=O` [Example 2D, 4-isopropyl-6-methoxy-2-saccharinylmethyl 2,6-dichloro-3-carboxymethylamino-sulfonylbenzoate], for which the Ki is 0.008 nM. With `CC(C)c1cccc2c1C(=O)N(COC(=O)c1c(Cl)ccc(OCC(=O)O)c1Cl)S2(=O)=O` [Example 3, 4-isopropyl-2-saccharinylmethyl 2,6-dichloro-3-carboxymethoxybenzoate], the Ki is 0.01 nM.

As for `CCOc1cc(C(C)C)c2c(c1)S(=O)(=O)N(COC(=O)c1c(Cl)cccc1Cl)C2=O` [Example 5A, 6-ethoxy-4-isopropyl-2-saccharinylmethyl 2,6-dichlorobenzoate], the Ki was 0.05 nM. Same read-out and setting: to `CC(C)Oc1cc(C(C)C)c2c(c1)S(=O)(=O)N(COC(=O)c1c(Cl)cccc1Cl)C2=O` [Example 5B] belongs 0.057 nM; to `CC(C)c1cc(OCC2COC(C)(C)O2)cc2c1C(=O)N(COC(=O)c1c(Cl)cccc1Cl)S2(=O)=O` (centres unmarked) [Example 5C], 0.03 nM; to `COCCOCCOc1cc(C(C)C)c2c(c1)S(=O)(=O)N(COC(=O)c1c(Cl)cccc1Cl)C2=O` [Example 5D], 0.03 nM. For the compound `COC(=O)COc1cc(C(C)C)c2c(c1)S(=O)(=O)N(COC(=O)c1c(Cl)cccc1Cl)C2=O` [Example 5E], the Ki was 0.017 nM. Turning to `CC(C)c1cc(OC2CCC2)cc2c1C(=O)N(COC(=O)c1c(Cl)cccc1Cl)S2(=O)=O` [Example 5G], the Ki is 0.054 nM.
